Earlier results as cited in patent publication US20120196889A1, “CATECHOLAMINE DERIVATIVES AND PRODRUGS THEREOF” (H. Lundbeck A/S, priority 2009, published 2012).

Conditions: in man after oral dosing; high hepatic first-pass metabolism

## CCCc1cc2c(s1)CN[C@@H]1CCc3cc(OC(C)=O)c(OC(C)=O)cc3[C@@H]21 [Adrogolide]
  oral bioavailability: ~4%
